Laboratory results published in patent US20120101087A1, “Generation of Combinatorial Synthetic Libraries and Screening for Novel Proadhesins and Nonadhesins” (priority 2007, published 2012).
Read-outs that look alike come from different tables or passages of the source.

Legend:
[1] = Solubility in water (solubility classes of screening compounds); format: physicochemical
P. aerug. = assay: Effectiveness towards P. aerug. (cystic fibrosis application, IC50 % wt/vol); format: cell-based, Pseudomonas aeruginosa
[2] = tested on: MRSA Staphylococcus aureus; assay: Anti-adhesion assay for MRSA Staphylococcus aureus; format: cell-based; settings: for IC50: read-out: IC50 anti-adhesion MRSA Staphylococcus aureus; for ICMAX (μM), IC100: maximal inhibition given as IC100
Staphylococcus areus = assay: Direct binding assay (DART TOF-MS) to Staphylococcus aureus; settings: FIG. 7
Dengue virus = assay: Direct binding assay (DART TOF-MS) to Dengue virus; settings: FIG. 6
From the text: The virus particles were collected and fixed in 100% (USP) ethanol prior to DART TOF-MS analysis. The closed end of a borosilicate glass capillary tube was immersed in the virion solution and passed through the DART He plasma to obtain mass spectra of virion surface-bound chemistries. […] The same conditions were used to assess the binding of composition here to bacterial species.

[3] = tested on: Dengue 2 (DENV-2 strain NG-2); assay: microbe, parasite or virus in culture; format: cell-based, Dengue virus
Colletotrichum acutatum = assay: Petri dish assay for activity against Colletotrichum acutatum (spore adhesion to polystyrene)
S. aureus = assay: Effectiveness towards S. aureus (IC50 % wt/vol); format: cell-based, Staphylococcus aureus

## CNC(=O)C(Cc1ccc(OS(C)(=O)=O)cc1)NC(=O)COCC(=O)Nc1cccc(OS(C)(=O)=O)c1 (stereo not shown) [Compound A02]
[1]
  Solubility in water: insoluble in water

## CNC(=O)C(Cc1ccc(OS(=O)(=O)C(F)(F)F)cc1)NC(=O)COCC(=O)Nc1cccc(OS(=O)(=O)C(F)(F)F)c1 (stereo not shown) [Compound B02]
[1]
  Solubility in water: insoluble in water

## CCN(CCOC(=O)/C=C/c1ccc(O)cc1)Cc1cc(Cl)ccc1O [Compound I]
P. aerug.
  IC50 (% wt/vol), pathogen P. aerug.: 0.001 % wt/vol
[2]; FIG. 7
  Adhesion of Staphylococcus areus when compound is bound: blocks adhesion
[2]; maximal inhibition printed as IC70, value is the concentration
  ICMAX (μM), IC70: IC70 - 120 μM
Staphylococcus areus
  Direct binding to Staphylococcus areus (DART-MS peak): binds to the bacteria
Dengue virus
  Direct binding to Dengue virus (DART-MS peak): direct binding
[3]; FIG. 6, virions from direct binding assay
  Dengue infection when compound is bound to virus: inhibited
Colletotrichum acutatum
  IC50 (% wt/vol), pathogen C. acut.: 0.004 % wt/vol

## CN(CCCNC(=O)c1ccc(O)cc1)CCCNC(=O)c1ccc2cc(O)ccc2c1 [III]
P. aerug.
  IC50 (% wt/vol), pathogen P. aerug.: 0.001 % wt/vol
[2]; Staphylococcus aureus, MRSA
  IC50: 7.1 µM
[2]; value is the concentration
  ICMAX (μM), IC100: IC100 - 100 μM
S. aureus
  IC50 (% wt/vol), pathogen S. aure.: <0.017 % wt/vol
Colletotrichum acutatum
  IC50 (% wt/vol), pathogen C. acut.: <0.005 % wt/vol

## CN(CCCNC(=O)c1ccc(O)cc1)CCCNC(=O)c1ccc(O)cc1 [IV]
[2]; Staphylococcus aureus, MRSA
  IC50: 1.5 µM
[2]; Staphylococcus aureus, MRSA, read-out: ICMAX (μM), IC90
  IC90: 10 µM

## O=C(c1ccc(O)cc1)N1CCCN(C(=O)c2ccc3cc(O)ccc3c2)CC1 [VI]
P. aerug.
  IC50 (% wt/vol), pathogen P. aerug.: <0.005 % wt/vol
[2]; Staphylococcus aureus, MRSA
  IC50: 2.5 µM
[2]; value is the concentration
  ICMAX (μM), IC100: IC100 - 10 μM
S. aureus
  IC50 (% wt/vol), pathogen S. aure.: <0.017 % wt/vol
[3]; Dengue virus, DENV2, LLC-MK2, read-out: IC50 Dengue 2, anti-infection (adhesion)
  IC50: 114 µM
Colletotrichum acutatum
  IC50 (% wt/vol), pathogen C. acut.: <0.005 % wt/vol

## O=C(O)/C=C/c1ccc(OS(=O)(=O)O)cc1 [Zosteric Acid, reference compound]
[2]; value is the concentration
  ICMAX (μM), IC100: IC100 - 90 μM
[2]
  IC50: 24.8 µM
[3]; from graph of % inhibition versus concentration, read-out: IC50 Dengue 2, anti-infection (adhesion)
  IC50: 1190 µM
